Active and inactive are the calls of the source. The rule behind the calls is not given here.

Data set [1] concerns the target T1, Histone-lysine N-methyltransferase EHMT2 (Homo sapiens, UniProt Q96KQ7).
T1 sequence (Q96KQ7 whole entry): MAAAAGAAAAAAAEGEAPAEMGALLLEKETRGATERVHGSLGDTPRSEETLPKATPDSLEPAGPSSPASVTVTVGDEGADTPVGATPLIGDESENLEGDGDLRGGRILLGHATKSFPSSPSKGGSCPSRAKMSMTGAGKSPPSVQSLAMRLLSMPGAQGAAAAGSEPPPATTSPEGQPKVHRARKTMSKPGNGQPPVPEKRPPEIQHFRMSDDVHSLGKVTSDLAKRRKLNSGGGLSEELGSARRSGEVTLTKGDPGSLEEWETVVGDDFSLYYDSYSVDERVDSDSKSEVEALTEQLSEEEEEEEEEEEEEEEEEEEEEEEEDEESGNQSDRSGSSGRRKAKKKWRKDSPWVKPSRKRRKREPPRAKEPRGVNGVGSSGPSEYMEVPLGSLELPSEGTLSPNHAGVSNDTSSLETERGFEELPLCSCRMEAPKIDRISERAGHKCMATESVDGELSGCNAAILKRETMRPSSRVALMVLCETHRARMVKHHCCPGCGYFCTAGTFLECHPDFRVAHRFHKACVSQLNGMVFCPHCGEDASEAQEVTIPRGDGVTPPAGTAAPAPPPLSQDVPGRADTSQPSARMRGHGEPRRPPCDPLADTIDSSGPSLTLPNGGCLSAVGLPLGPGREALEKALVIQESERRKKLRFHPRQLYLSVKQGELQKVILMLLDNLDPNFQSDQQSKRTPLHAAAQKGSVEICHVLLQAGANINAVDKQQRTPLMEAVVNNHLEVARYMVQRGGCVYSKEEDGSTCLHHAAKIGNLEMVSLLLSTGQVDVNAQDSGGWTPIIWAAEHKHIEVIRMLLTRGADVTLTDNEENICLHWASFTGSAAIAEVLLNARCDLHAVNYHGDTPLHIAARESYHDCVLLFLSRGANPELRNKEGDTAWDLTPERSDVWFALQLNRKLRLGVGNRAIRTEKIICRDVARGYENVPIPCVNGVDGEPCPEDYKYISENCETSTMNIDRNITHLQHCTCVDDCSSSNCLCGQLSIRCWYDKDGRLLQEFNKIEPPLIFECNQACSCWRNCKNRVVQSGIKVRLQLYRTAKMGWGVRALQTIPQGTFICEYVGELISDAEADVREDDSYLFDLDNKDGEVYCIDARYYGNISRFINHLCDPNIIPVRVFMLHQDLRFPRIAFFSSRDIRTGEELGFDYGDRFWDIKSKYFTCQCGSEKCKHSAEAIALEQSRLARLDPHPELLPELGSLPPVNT
Briefly: Inhibition of G9a (unknown origin) by AlphaLISA assay. In general terms: In Alpha technology, singlet oxygen from a donor bead excites a nearby acceptor bead.

For data set [2], the target named is T2, Histone-lysine N-methyltransferase EHMT1 (Homo sapiens, UniProt Q9H9B1).
T2 sequence (Q9H9B1 whole entry): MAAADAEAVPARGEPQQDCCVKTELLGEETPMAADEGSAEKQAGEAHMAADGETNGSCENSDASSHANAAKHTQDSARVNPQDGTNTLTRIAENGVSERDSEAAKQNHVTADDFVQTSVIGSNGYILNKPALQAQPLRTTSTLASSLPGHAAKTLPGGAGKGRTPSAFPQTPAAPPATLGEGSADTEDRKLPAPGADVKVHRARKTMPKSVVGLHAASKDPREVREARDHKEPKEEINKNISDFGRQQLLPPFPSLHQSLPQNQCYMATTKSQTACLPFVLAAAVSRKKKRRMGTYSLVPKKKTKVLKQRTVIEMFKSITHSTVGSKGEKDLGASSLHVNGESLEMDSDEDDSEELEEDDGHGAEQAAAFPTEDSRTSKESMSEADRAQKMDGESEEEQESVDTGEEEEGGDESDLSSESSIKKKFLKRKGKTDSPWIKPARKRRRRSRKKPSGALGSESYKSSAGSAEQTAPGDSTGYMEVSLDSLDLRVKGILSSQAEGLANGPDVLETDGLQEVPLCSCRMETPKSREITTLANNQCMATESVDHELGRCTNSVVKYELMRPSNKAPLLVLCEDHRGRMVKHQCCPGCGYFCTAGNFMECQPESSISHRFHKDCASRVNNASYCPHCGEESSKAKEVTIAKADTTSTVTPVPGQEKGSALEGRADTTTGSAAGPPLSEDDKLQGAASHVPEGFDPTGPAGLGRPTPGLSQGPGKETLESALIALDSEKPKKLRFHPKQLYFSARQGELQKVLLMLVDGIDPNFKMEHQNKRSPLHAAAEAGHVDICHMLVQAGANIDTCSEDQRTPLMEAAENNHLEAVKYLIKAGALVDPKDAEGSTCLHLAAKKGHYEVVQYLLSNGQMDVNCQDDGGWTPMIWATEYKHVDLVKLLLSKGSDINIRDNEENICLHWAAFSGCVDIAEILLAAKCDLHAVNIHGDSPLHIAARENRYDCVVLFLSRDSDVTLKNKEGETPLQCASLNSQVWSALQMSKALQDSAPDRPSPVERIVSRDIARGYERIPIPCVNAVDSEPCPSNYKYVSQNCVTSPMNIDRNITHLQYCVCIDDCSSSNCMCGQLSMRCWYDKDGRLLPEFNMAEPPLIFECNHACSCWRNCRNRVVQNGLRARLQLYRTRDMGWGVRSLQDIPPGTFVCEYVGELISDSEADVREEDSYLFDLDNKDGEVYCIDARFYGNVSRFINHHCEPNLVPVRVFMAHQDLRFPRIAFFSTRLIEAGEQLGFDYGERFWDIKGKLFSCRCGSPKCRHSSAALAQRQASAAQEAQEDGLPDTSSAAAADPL
The data set can be described thus: Inhibition of GLP (unknown origin).

Data set [3] has as its target T1, Histone-lysine N-methyltransferase EHMT2. Briefly: Inhibition of human recombinant G9a using H3-SAM as substrate.
For data set [4], the system named is MDA-MB-231. The data set can be described thus: Antiproliferative activity against human MDA-MB-231 cells assessed as cell viability measured after 24 hrs by CCK-8 assay. The data set is classed as functional, cell-based. The settings on record: MDA-MB-231, 24 h.
Another data set has as its system PANC-1. Briefly: Antiproliferative activity against human PANC-1 cells assessed as cell viability measured after 24 hrs by CCK-8 assay. The data set is classed as functional, cell-based. The settings on record: PANC-1, 24 h. For orientation: Tetrazolium dyes change colour on reduction, which living cells bring about.
Data set [5] in a line: Metabolic stability in mouse liver microsomes assessed as half life at 0.1 uM measured upto 60 mins by LC-MS/MS analysis. The data set is classed as ADME, Microsome.
For data set [6], the system named is MDA-MB-231. Briefly: Reduction in H3K9me2 level in human MDA-MB-231 cells at 10 uM incubated for 48 hrs followed replaced with fresh medium measured after 24 hrs by Western blot analysis. The data set is classed as functional, cell-based. Background: In western blotting, separated proteins are transferred to a membrane and probed.
Data set [7] concerns the target T3, Histone-lysine N-methyltransferase EHMT2 (Homo sapiens) (UniProt Q96KQ7).
T3 sequence (whole entry): T1 sequence (Q96KQ7 whole entry)
Briefly: Binding affinity to G9a in human MDA-MB-231 cells assessed as protein stabilization at 37 to 41.7 degC at 10 uM incubated for 15 hrs in presence of G9a antibody by CETSA. The data set is classed as cell-based.

For data set [8], the system named is MDA-MB-231. The data set can be described thus: Reduction in H3K9me2 level in human MDA-MB-231 cells at 10 uM by Western blot analysis. The data set is classed as functional, cell-based. The conditions noted are these: time 24-96 hrs, TDE = time-dependent effect.

By IC50 is commonly meant the midpoint of a concentration-inhibition curve. As to `C=C(C)C(=O)NCc1cc(NC2CCN(C)CC2)c2cc(OC)c(OCCCN3CCCC3)cc2n1`, in data set [1], inhibition was half-maximal at 0.53 nM (IC50).
Same read-out and setting: the same measure for `CCC(=O)NCc1cc(NC2CCN(C)CC2)c2cc(OC)c(OCCCN3CCCC3)cc2n1`: 0.71 nM.
`CNc1nc2cc(OCCCN3CCCC3)c(OC)cc2n1C(C)C`: the IC50 in [2] and in data set [3] was below 100 nM in each case.
For orientation: half-life means how long it takes for the measured level to halve. Turning to `C=CC(=O)N(C)c1nc(NC2CCN(C3CCCCC3)CC2)c2cc(OC)c(OCCCN3CCCC3)cc2n1`, the results for the IC50 (in the data set with MDA-MB-231 [4]; with PANC-1; in [1]) were 2230 nM, 2440 nM and 3.51 nM, respectively. Further, the half-life at 0.1 µM in data set [5] came out at 10 min.
As to `CCC(=O)N(C)c1nc(NC2CCN(C)CC2)c2cc(OC)c(OCCCN3CCCC3)cc2n1`, the results for the IC50 (with MDA-MB-231 [4]; in the data set with PANC-1; in [1]) were 9730 nM, 14800 nM and 5.8 nM, respectively. Further, the inhibition result with MDA-MB-231 [6] is “inactive”. Besides, in [7], the outcome was Active. Besides, in the data set on MDA-MB-231 [8], the inhibition result was “Tde”.
`COc1cc2c(NC3CCN(C)CC3)nc(CNC(=O)CC#N)nc2cc1OCCCN1CCCC1`: the IC50 in data set [1] is 80 nM.
The molecule `CCC(=O)NCc1nc(NC2CCN(C)CC2)c2cc(OC)c(OCCCN3CCCC3)cc2n1` had an IC50 in data set [1] of 64 nM.
In data set [1], `COc1cc2c(NC3CCN(C)CC3)cc(CNC(=O)CCl)nc2cc1OCCCN1CCCC1` came in with an IC50 of 1.7 nM.
On the same count and under the same terms, as for `C/C=C/C(=O)NCc1nc(NC2CCN(C)CC2)c2cc(OC)c(OCCCN3CCCC3)cc2n1`, the figure is 74 nM; as for `COc1cc2c(NC3CCN(C)CC3)nc(CNC(=O)C3(C#N)CC3)nc2cc1OCCCN1CCCC1`, 111 nM.
Same read-out and setting: as for `CC#CC(=O)NCc1cc(NC2CCN(C)CC2)c2cc(OC)c(OCCCN3CCCC3)cc2n1`, the figure is 0.42 nM; as for `CC#CC(=O)NCc1nc(NC2CCN(C)CC2)c2cc(OC)c(OCCCN3CCCC3)cc2n1`, 95 nM; as for `C=C(C)C(=O)NCc1nc(NC2CCN(C)CC2)c2cc(OC)c(OCCCN3CCCC3)cc2n1`, 116 nM.
On to `C=CC(=O)N(C)c1nc(NC2CCN(C(C)C)CC2)c2cc(OC)c(OCCCN3CCCC3)cc2n1`, for which the values for the half-maximal inhibitory concentration (IC50) (in the data set with MDA-MB-231 [4]; with PANC-1; in data set [1]) were 9600 nM, 8220 nM and 4.4 nM, respectively.
For `COc1cc2c(NC3CCN(C)CC3)nc(CNC(=O)CCl)nc2cc1OCCCN1CCCC1`, the half-maximal inhibitory concentration (IC50) in [1] is 5.7 nM.
As to `C=CC(=O)N(C)c1nc(NC2CCN(CCC)CC2)c2cc(OC)c(OCCCN3CCCC3)cc2n1`, the IC50 turned out to be 5480 nM with MDA-MB-231 [4], 4750 nM with PANC-1 and 3.9 nM in data set [1].
Turning to `C=CC(=O)N(C)c1nc(NCC2CCN(C)CC2)c2cc(OC)c(OCCCN3CCCC3)cc2n1`, the IC50 was above 40000 nM with MDA-MB-231 [4], above 40000 nM with PANC-1 and 11 nM in data set [1].
In the case of `C=CC(=O)NCc1nc(NC2CCN(C)CC2)c2cc(OC)c(OCCCN3CCCC3)cc2n1`, in data set [1], the midpoint of inhibition, the IC50, lay at 60 nM.
For the molecule `C=CC(=O)NCc1cc(NC2CCN(C)CC2)c2cc(OC)c(OCCCN3CCCC3)cc2n1`, the half-maximal inhibitory concentration (IC50) in data set [1] worked out at 0.49 nM.
As to `C=CC(=O)N(C)c1nc(NC2CCN(Cc3ccccc3)CC2)c2cc(OC)c(OCCCN3CCCC3)cc2n1`, the IC50 with MDA-MB-231 [4] came to 460 nM; in the data set on PANC-1 it was 520 nM; in [1], 5.9 nM. Moreover, the half-life at 0.1 µM in data set [5] is 4.72 min.
On to `COc1cc2c(NC3CCN(C)CC3)nc(CNC(=O)/C=C/CN(C)C)nc2cc1OCCCN1CCCC1`, for which half-maximal inhibition in data set [1] (IC50) required 7.6 nM.
The same measure, in the same setting: as for `C/C=C/C(=O)NCc1cc(NC2CCN(C)CC2)c2cc(OC)c(OCCCN3CCCC3)cc2n1`, the figure is 0.52 nM.

Values taken from ChEMBL document CHEMBL5338815 (J Med Chem, 2023).
